The source of these data is US12053467B2, “Method of treating fibrosis” (NovMeta Pharma Co., Ltd., priority 2020, dated 2024).

Data set [1] concerns Collagen 3 (Col3). As to the kind of experiment: Col3 mRNA (real-time PCR) in bleomycin-induced pulmonary fibrosis mice. The format is in vivo, ICR mice. The note with it: lung, 5, 25, 50 and 100 mg/kg/day oral, daily for 4 weeks, vs BLM alone (set 1.0). On the procedure:
(§1) Seven-week-old male ICR mice from Koatech Co. Ltd (Gyeonggi-do, Korea). All animal experiments were approved by the Ethics Review Committee of the Advanced Bio Convergence Center, Republic of Korea. Mice were housed in specific pathogen-free conditions with a 12 hr light-dark cycle and had free access to water and food. Body weight and caloric intake were monitored throughout the experiments. The mice were housed in single cage and food intake was calculated of each animals in the cage. 5 or 25 or 50 or 100 mg/kg/day CHP monohydrate, 5 mg/kg/day CHP+10 mg/kg/day Zn, or PBS (vehicle control), was orally administered daily for 4 weeks. At the conclusion of the in vivo experiment, the mice were sacrificed and tissues were collected and weighed. Tissue samples were stored at −80° C. until analysis.
(§2) Mice maintained under anesthesia with isoflurane were intravenously administered bleomycin 75 mg/kg in saline. […]
(§3) Total RNA was prepared by an RNeasy Mini kit (QIAGEN) according to the manufacturer's instructions. RNA integrity was assessed by an automated microfluidics-based system (Bioanalyzer 2100, Agilent, Palo Alto, CA, USA). […] A melt curve was produced to confirm a single gene-specific peak and detect primer/dimer formation by heating the samples from 65 to 95° C. in 0.5° C. increments with a dwell time at each temperature of 10 sec while continuously monitoring fluorescence. […]
On the technique in general: Real-time PCR tracks product formation cycle by cycle.

Data set [2] deals with lung hydroxyproline (collagen deposition). The data set is described as follows: Hydroxyproline assay of lung in bleomycin-induced IPF mice. Conditions: 5, 25, 50 and 100 mg/kg/day oral, daily for 4 weeks, vs BLM alone. The format is in vivo, ICR mice. On the procedure:
as §1
(§4) Mice maintained under anesthesia with isoflurane were intravenously administered bleomycin 75 mg/kg in saline. The first administration of CHP hydrate or CHP hydrate+Zn was performed 30 min after bleomycin administration.
Collagen deposition was determined by measuring the total hydroxyproline (HYP) content, which was measured by a HYP assay kit according to the provided manufacturer's protocol. […] After neutralization with hydrochloric acid, the hydrolyzation products were diluted with distilled water, and assessed at 550 nm and expressed as ug/10 mg.

Data set [3] in a line: pKa of CHP hydrate material. The format is physicochemical. The note with it: characterising feature (b).
Data set [4] concerns bleomycin (BLM)-induced pulmonary fibrosis. As to the kind of experiment: Bleomycin-induced pulmonary fibrosis mouse model, overall effect. Conditions: 5, 25, 50 and 100 mg/kg/day oral, 4 weeks; compared to BLM alone group; FIGS. 1-7. The format is in vivo, ICR mice. On the procedure:
as §1, with “analysis. Mice maintained under anesthesia with isoflurane were intravenously administered bleomycin 75 mg/kg in saline. The first administration of CHP hydrate or CHP hydrate+Zn was performed 30 min after bleomycin administration.” for “analysis.”

The subject of data set [5] is Collagen 4 (Col4). As to the kind of experiment: Col4 mRNA (real-time PCR) in bleomycin-induced pulmonary fibrosis mice. The format is in vivo, ICR mice. The note with it: lung, 5, 25, 50 and 100 mg/kg/day oral, daily for 4 weeks, vs BLM alone (set 1.0). On the procedure: as §1, §2, §3
Data set [6] relates to Collagen 1 (Col1). The data set is described as follows: Col1 mRNA (real-time PCR) in bleomycin-induced pulmonary fibrosis mice. The format is in vivo, ICR mice. The note with it: lung, 5, 25, 50 and 100 mg/kg/day oral, daily for 4 weeks, vs BLM alone (set 1.0). On the procedure: as §1, §2, §3
Data set [7] concerns α-smooth muscle actin (aSMA). The data set is described as follows: αSMA mRNA (real-time PCR) in bleomycin-induced pulmonary fibrosis mice. The format is in vivo, ICR mice. The note with it: lung, 5, 25, 50 and 100 mg/kg/day oral, daily for 4 weeks, vs BLM alone (set 1.0). The protocol:
as §1, §2, §3

Data set [8] has as its system fibronectin. The data set is described as follows: Fibronectin mRNA (real-time PCR) in bleomycin-induced pulmonary fibrosis mice. The format is in vivo, ICR mice. The note with it: lung; 5, 25, 50 and 100 mg/kg/day oral, daily for 4 weeks; vs BLM alone (set 1.0). On the procedure: as §1, §2, §3
For data set [9], the system named is fibronectin. As to the kind of experiment: Western blot of fibronectin in bleomycin-induced pulmonary fibrosis mice. The format is in vivo, ICR mice. The note with it: CHP 5 mg/kg oral, daily for 4 weeks; compared to BLM group. On the procedure: as §1, §4
20-30 μg of lysates were separated on BOLT™ 4-12% Bis-Tris Plus gels with MES running buffer and transferred to nitrocellulose membranes using TRANS-BLOT® TURBO™ Transfer System (Bio-Rad). […]

For data set [10], the system named is zinc absorption and uptake by muscle tissues and by intestinal segments. The note with it: Life Sciences 70 (2001), 337-348; cited from earlier work.
Data set [11] concerns transforming growth factor-β (TGF-β). The data set is described as follows: TGF-β mRNA (real-time PCR) in bleomycin-induced pulmonary fibrosis mice. The note with it: lung; 5, 25, 50 and 100 mg/kg/day oral, daily for 4 weeks; vs BLM alone (set 1.0). The format is in vivo, ICR mice. On the procedure: as §1, §2, §3

One may read the pKa as the negative logarithm of the acid dissociation constant. Turning to `O=C1N[C@@H](Cc2cnc[nH]2)C(=O)N2CCC[C@@H]12` [CHP hydrate, cyclo(-His-Pro) hydrate], the “relative Col3 mRNA expression level” value in data set [1] (hydrate) is listed as “dramatically reduced”. Besides, in data set [2] (hydrate), the “lung hydroxyproline (HYP) content / accumulation of collagen in the lung” value is “significantly decreased”. The pKa in data set [3] was ~6.4. The “inflammation and fibrosis biomarkers” value in data set [4] was “significantly decreased”. Besides, in data set [5] (hydrate), the “relative Col4 mRNA expression level” value is on record as “dramatically reduced”. In addition, the “relative Col1 mRNA expression level” value in [6] (hydrate) was “dramatically reduced”. Also, the “relative αSMA mRNA expression level” value in [7] (hydrate) is “dramatically reduced”.
Consider `O=C1N[C@@H](Cc2cnc[nH]2)C(=O)N2CCC[C@@H]12` [CHP, Cyclo(-His-Pro)], for which, in data set [8], the “relative fibronectin mRNA expression level” value is given as “significantly reduces”. Further, in data set [1], the “relative Col3 mRNA expression level” value is given as “significantly reduces”. In addition, the “lung hydroxyproline (HYP) content / accumulation of collagen in the lung” value in data set [2] was “significantly reduces”. Moreover, the “fibronectin protein levels (Western blotting)” value in [9] was “dramatically reduced”. In data set [10], the “zinc absorption and uptake” value is “enhanced”. Besides, the “relative Col4 mRNA expression level” value in data set [5] is “significantly reduces”. For the same compound, the “relative TGF-β mRNA expression level” value in data set [11] was “significantly reduces”. For the same compound, in data set [6], the “relative Col1 mRNA expression level” value is “significantly reduces”. Further, the “relative αSMA mRNA expression level” value in data set [7] was “significantly reduces”.
